From patent publication US9187465B2, “Oxazole tyrosine kinase inhibitors” (Sareum Limited, priority 2007, dated 2015)
Where two headings read alike, the source gives them in different places.

Assays:
human FLT4 = biological target: T1, human FLT4 (Homo sapiens, UniProt P35916); experiment: FLT4 kinase assay (DELFIA enzyme inhibition); assay type: biochemical
T1 construct: a construct expressing the human FLT4 (789-1207) with an amino terminal GST tag; host or cells: Sf9 insect cells (baculovirus)
Method in brief: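 GST-tagged human FLT4 (789-1207) from Sf9 cells phosphorylates a biotinylated MET (Tyr1253)-derived peptide for 30 min at room temperature, stopped with EDTA. Phosphopeptide is captured on Neutravidin and detected with Eu-labelled anti-phosphotyrosine antibody by time-resolved fluorescence; IC50 from % inhibition curves.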

human Aurora A = biological target: T2, human Aurora A (Homo sapiens, UniProt O14965); experiment: Aurora A kinase assay (DELFIA enzyme inhibition); assay type: biochemical
T2 construct: Histidine tag (N); host or cells: Sf9 insect cells (baculovirus)
T2 sequence (O14965 1-403): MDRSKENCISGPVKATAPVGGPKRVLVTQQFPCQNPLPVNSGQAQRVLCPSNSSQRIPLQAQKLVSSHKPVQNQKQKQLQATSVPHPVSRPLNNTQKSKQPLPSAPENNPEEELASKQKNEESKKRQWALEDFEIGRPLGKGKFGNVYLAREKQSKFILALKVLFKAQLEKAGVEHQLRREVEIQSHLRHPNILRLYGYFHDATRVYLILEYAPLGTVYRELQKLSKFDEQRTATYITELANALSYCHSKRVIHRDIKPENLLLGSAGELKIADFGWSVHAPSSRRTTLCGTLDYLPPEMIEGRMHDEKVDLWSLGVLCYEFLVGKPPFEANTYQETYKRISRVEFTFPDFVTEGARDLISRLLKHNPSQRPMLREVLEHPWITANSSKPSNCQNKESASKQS
Description: The protein was purified by one-step affinity chromatography using nickel-agarose […]
Assay reactions are set up in a 25 uL final volume on a 96 well plate. […] The reaction is allowed to proceed for 30 minutes at room temperature before stopping with 100 μL Stop solution comprising of 100 mM EDTA, 1×BSA blocker in TBS (Perbio) and 0.05% Surfact-Amps20 (Perbio).
The stopped reaction is transferred to a black 96-well Neutravidin-coated plate (Perbio) and incubated for 30 minutes to capture the biotinylated peptide substrate. […] After repeating the washing step, the plate is further incubated for one hour with Europium-labelled anti-rabbit antibody (Perkin Elmer AD0105). The wash step is repeated for a final time before DELFIA Enhancement solution (Perkin Elmer) is added to all wells for 5 minutes and the fluorescence measured on a plate reader Analyst HT (Molecular Devices).

T1 sequence (P35916 789-1207): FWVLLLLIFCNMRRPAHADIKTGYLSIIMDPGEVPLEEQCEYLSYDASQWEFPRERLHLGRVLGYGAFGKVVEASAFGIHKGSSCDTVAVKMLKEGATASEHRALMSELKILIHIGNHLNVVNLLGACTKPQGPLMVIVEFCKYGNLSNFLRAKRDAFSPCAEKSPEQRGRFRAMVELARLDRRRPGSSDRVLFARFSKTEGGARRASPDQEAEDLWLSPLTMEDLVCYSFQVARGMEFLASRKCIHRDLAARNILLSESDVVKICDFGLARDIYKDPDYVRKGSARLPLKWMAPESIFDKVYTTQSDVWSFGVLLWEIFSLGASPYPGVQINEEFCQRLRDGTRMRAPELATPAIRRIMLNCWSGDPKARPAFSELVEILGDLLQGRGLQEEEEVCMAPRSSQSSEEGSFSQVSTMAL

| IC50 (human FLT4; read-out: FLT4 IC50) [µM] | IC50 (human Aurora A; read-out: Aurora A IC50) [µM] | SMILES | IC50 (human FLT4) [µM] | IC50 (human Aurora A) [µM] |
| --- | --- | --- | --- | --- |
| < 10 | < 10 | NCCNC(=O)c1ccc(Nc2oc(-c3c(F)cccc3F)nc2C(N)=O)cc1 [Example Q-52, 5-(4-((2-aminoethyl)carbamoyl)phenylamino)-2-(2,6-difluorophenyl)oxazole-4-carboxamide] |  |  |
| < 10 | < 10 | NC(=O)c1nc(-c2c(F)cccc2F)oc1Nc1ccc(C(=O)N[C@@H]2CCCNC2)cc1 [Example Q-53, (R)-2-(2,6-difluorophenyl)-5-(4-(piperidin-3-ylcarbamoyl)phenylamino)oxazole-4-carboxamide] |  |  |
| < 10 | < 10 | NC(=O)c1nc(-c2c(F)cccc2F)oc1Nc1ccc(C(=O)N[C@H]2CCCNC2)cc1 [Example Q-54, (S)-2-(2,6-difluorophenyl)-5-(4-(piperidin-3-ylcarbamoyl)phenylamino)oxazole-4-carboxamide] |  |  |
| < 10 | < 10 | NC(=O)c1nc(-c2c(F)cccc2F)oc1Nc1ccc(C(=O)NC[C@@H]2CCCNC2)cc1 [Example Q-55, (R)-5-(4-((piperidin-3-ylmethyl)carbamoyl)phenylamino)-2-(2,6-difluorophenyl)oxazole-4-carboxamide] |  |  |
| < 10 | < 10 | NC(=O)c1nc(-c2cccc3[nH]ncc23)oc1Nc1ccc(N2CCNCC2)cc1 [Example Q-59, 2-(1H-indazol-4-yl)-5-(4-(piperazin-1-yl)phenylamino)oxazole-4-carboxamide] |  |  |
| < 10 | < 100 | COc1ccc(Nc2nc(C(N)=O)c(-c3ccc(OC)cc3)o2)cc1 [Example R-4, 5-(4-methoxyphenyl)-2-(4-methoxyphenylamino)oxazole-4-carboxamide] |  |  |
| < 10 | < 10 | COc1ccc(-c2oc(Nc3cccc(C)c3)nc2C(N)=O)cc1 [Example R-6, 2-(m-toluidino)-5-(4-methoxyphenyl)oxazole-4-carboxamide] |  |  |
| < 10 | < 10 | Cc1ccccc1Nc1nc(C(N)=O)c(-c2ccc(N3CCNCC3)cc2)o1 [Example R-10, 2-(o-toluidino)-5-(4-(piperazin-1-yl)phenyl)oxazole-4-carboxamide] |  |  |
| < 10 | < 10 | NC(=O)c1nc(Nc2ccnn2Cc2ccccc2)oc1-c1ccc(N2CCNCC2)cc1 [Example R-18, 2-(1-benzyl-1H-pyrazol-5-ylamino)-5-(4-(piperazin-1-yl)phenyl)oxazole-4-carboxamide] |  |  |
| < 10 | < 10 | NC(=O)c1nc(-c2c(F)cccc2F)oc1-c1ccc(OCC2CCNCC2)cc1 [Example S-14, 2-(2,6-difluorophenyl)-5-(4-(piperidin-4-ylmethoxy)phenyl)oxazole-4-carboxamide] |  |  |
| < 10 | < 10 | NC(=O)c1nc(-c2c(F)cccc2F)oc1-c1ccc(OCC2CNCCO2)cc1 (stereo not shown) [Example S-15, 2-(2,6-difluorophenyl)-5-(4-(morpholin-2-ylmethoxy)phenyl)oxazole-4-carboxamide] |  |  |
| < 10 | < 10 | CCCN(CCO)CCOc1ccc(-c2oc(-c3c(F)cccc3F)nc2C(N)=O)cc1 [Example S-16, 2-(2,6-difluorophenyl)-5-(4-(2-((2-hydroxyethyl)(propyl)amino)ethoxy)phenyl)oxazole-4-carboxamide] |  |  |
| < 10 | < 10 | NC(=O)c1nc(-c2c(F)cccc2F)oc1-c1ccc(OCCN2CCCC(O)C2)cc1 (stereo not shown) [Example S-17, 2-(2,6-difluorophenyl)-5-(4-(2-(3-hydroxypiperidin-1-yl)ethoxy)phenyl)oxazole-4-carboxamide] |  |  |
| < 10 | < 10 | NC(=O)c1nc(-c2c(F)cccc2F)oc1-c1ccc(OCCN2CCC(CO)CC2)cc1 [Example S-18, 2-(2,6-difluorophenyl)-5-(4-(2-(4-(hydroxymethyl)piperidin-1-yl)ethoxy)phenyl)oxazole-4-carboxamide] |  |  |
| < 10 | < 10 | CCN(CCO)CCOc1ccc(-c2oc(-c3c(F)cccc3F)nc2C(N)=O)cc1 [Example S-19, 2-(2,6-difluorophenyl)-5-(4-(2-(ethyl(2-hydroxyethyl)amino)ethoxy)phenyl)oxazole-4-carboxamide] |  |  |
| < 10 | < 10 | CNCCOc1ccc(-c2oc(-c3c(F)cccc3F)nc2C(N)=O)cc1 [Example S-20, 2-(2,6-difluorophenyl)-5-(4-(2-(methylamino)ethoxy)phenyl)oxazole-4-carboxamide] |  |  |
| < 10 | < 10 | NC(=O)c1nc(-c2c(F)cccc2F)oc1-c1ccc(OCCNCCO)cc1 [Example S-21, 2-(2,6-difluorophenyl)-5-(4-(2-(2-hydroxyethylamino)ethoxy)phenyl)oxazole-4-carboxamide] |  |  |
| < 10 | < 10 | NC(=O)c1nc(-c2c(F)cccc2F)oc1Nc1ccc(C(=O)N2CCOCC2)cc1 [Example U-2, 2-(2,6-difluorophenyl)-5-(4-(morpholine-4-carbonyl)phenylamino)oxazole-4-carboxamide] |  |  |
| < 10 | < 10 | CNCCNC(=O)c1ccc(Nc2oc(-c3c(F)cccc3F)nc2C(N)=O)cc1 [Example U-3, 5-(4-((2-(methylamino)ethyl)carbamoyl)phenylamino)-2-(2,6-difluorophenyl) oxazole-4-carboxamide] |  |  |
| < 10 | < 10 | CNCCCNC(=O)c1ccc(Nc2oc(-c3c(F)cccc3F)nc2C(N)=O)cc1 [Example U-4, 5-(4-((3-(methylamino)propyl)carbamoyl)phenylamino)-2-(2,6-difluorophenyl) oxazole-4-carboxamide] |  |  |
| < 10 | < 10 | NC(=O)c1nc(-c2c(F)cccc2F)oc1Nc1ccc(C(=O)N[C@@H]2CCNC2)cc1 [Example U-6, (R)-2-(2,6-difluorophenyl)-5-(4-(pyrrolidin-3-ylcarbamoyl)phenylamino)oxazole-4-carboxamide] |  |  |
| < 10 | < 10 | NC(=O)c1nc(-c2c(F)cccc2F)oc1Nc1ccc(C(=O)N[C@H]2CCNC2)cc1 [Example U-7, (S)-2-(2,6-difluorophenyl)-5-(4-(pyrrolidin-3-ylcarbamoyl)phenylamino)oxazole-4-carboxamide] |  |  |
| < 10 | < 10 | CN(C)CCNC(=O)c1ccc(Nc2oc(-c3c(F)cccc3F)nc2C(N)=O)cc1 [Example U-8, 5-(4-((2-(dimethylamino)ethyl)carbamoyl)phenylamino)-2-(2,6-difluorophenyl) oxazole-4-carboxamide] |  |  |
| < 10 | < 10 | NC(=O)c1nc(-c2c(F)cccc2F)oc1Nc1ccc(C(=O)NCCN2CCOCC2)cc1 [Example U-9, 5-(4-((2-morpholinoethyl)carbamoyl)phenylamino)-2-(2,6-difluorophenyl)oxazole-4-carboxamide] |  |  |
|  |  | NC(=O)c1nc(-c2c(F)cccc2F)oc1Nc1ccc(C(=O)NC2CN3CCC2CC3)cc1 (stereo not shown) [Example U-10, 2-(2,6-difluorophenyl)-5-(4-(quinuclidin-3-ylcarbamoyl)phenylamino)oxazole-4-carboxamide] | < 10 | < 10 |
|  |  | CN1C2CCC1CC(NC(=O)c1ccc(Nc3oc(-c4c(F)cccc4F)nc3C(N)=O)cc1)C2 (stereo not shown) [Example U-11, 5-(4-((8-methyl-8-aza-bicyclo[3.2.1]octan-3-yl)carbamoyl)phenylamino)-2-(2,6-difluorophenyl)oxazole-4-carboxamide] | < 10 | < 10 |
